Measured values: PubChem BioAssay (NCI)
Several values for one entry are separate records, joined by “and”; a condition that tells them apart may be missing. Equal values may be shown once.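 Where inhibition never reached the appropriate level, the endpoint shown equals the highest concentration tested. Otherwise, values were interpolated linearly from a five-concentration, 48-hour dose response in 96-well plates. The concentration for 50% growth inhibition is given as GI50. At the TGI there is no net growth.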

Assays:
Experiment in all cases: DTP human tumour cell line panel, 48 h; in the data active means GI50 below about 0.43 µM; inactive means the rest
[1] = tested on: EKVX NSCLC
[2] = tested on: HT29 colon
[3] = tested on: UACC-257 melanoma
[4] = tested on: SK-MEL-5 melanoma
[5] = tested on: NCI-H522 lung
[6] = tested on: IGROV1 ovarian
[7] = tested on: BT-549 breast
[8] = tested on: NCI-H226 lung
[9] = tested on: MDA-MB-231 breast
[10] = tested on: PC-3 prostate
[11] = tested on: CCRF-CEM leukemia
[12] = tested on: RXF 393 renal
[13] = tested on: SK-MEL-28 melanoma
[14] = tested on: OVCAR-8 ovarian
[15] = tested on: SK-OV-3 ovarian
[16] = tested on: K-562 leukemia
[17] = tested on: SW-620 colon
[18] = tested on: SNB-19 CNS
[19] = tested on: M14 melanoma
[20] = tested on: MALME-3M melanoma
[21] = tested on: HS 578T breast
[22] = tested on: OVCAR-4 ovarian
[23] = tested on: MDA-MB-435
[24] = tested on: HL-60(TB) leukemia
[25] = tested on: NCI-H23 lung
[26] = tested on: SF-268 CNS
[27] = tested on: HCT-15 colon
[28] = tested on: SNB-75 CNS
[29] = tested on: KM12 colon
[30] = tested on: HCC-2998 colon
[31] = tested on: OVCAR-3 ovarian
[32] = tested on: COLO 205 colon
[33] = tested on: SF-295 CNS
[34] = tested on: UO-31 renal
[35] = tested on: 786-0 renal
[36] = tested on: NCI/ADR-RES ovarian
[37] = tested on: NCI-H460 lung
[38] = tested on: MCF7 breast
[39] = tested on: TK-10 renal
[40] = tested on: HOP-62 NSCLC
[41] = tested on: A498 renal
[42] = tested on: SN12C renal
[43] = tested on: ACHN renal
[44] = tested on: UACC-62 melanoma
[45] = tested on: RPMI-8226 leukemia
[46] = tested on: MDA-N
[47] = tested on: HOP-92 NSCLC
[48] = tested on: U251 CNS
[49] = tested on: HCT-116 colon
[50] = tested on: CAKI-1 renal
[51] = tested on: MOLT-4 leukemia
[52] = tested on: T-47D breast
[53] = tested on: SK-MEL-2 melanoma
[54] = tested on: SR leukemia
[55] = tested on: OVCAR-5 ovarian
[56] = tested on: DU-145 prostate
[57] = tested on: SF-539 CNS
[58] = tested on: LOX IMVI melanoma
[59] = tested on: A549 NSCLC
[60] = tested on: DMS 114 small cell lung
[61] = tested on: DLD-1 colon
[62] = tested on: KM20L2 colon
[63] = tested on: LXFL 529 NSCLC

Cc1ccc(S(=O)(=O)N2CCNCCN(S(=O)(=O)c3ccc(C)cc3)CCN(S(=O)(=O)c3ccc(C)cc3)CC2)cc1
> 100 µM: TGI [1] | TGI [2] | TGI [3] | TGI [4] | TGI [5] | TGI [6] | TGI [7] | TGI [8] | TGI [9] | TGI [10] | TGI [11] | TGI [12] | TGI [13] | TGI [14] | TGI [15] | TGI [16] | TGI [17] | TGI [18] | TGI [19] | TGI [20] | TGI [21] | TGI [22] | TGI [23] | TGI [24] | TGI [25] | TGI [26] | TGI [27] | TGI [28] | TGI [29] | TGI [30] | TGI [31] | TGI [32] | TGI [33] | TGI [34] | TGI [35] | TGI [36] | TGI [37] | TGI [38] | TGI [39] | TGI [40] | TGI [41] | TGI [42] | TGI [43] | TGI [44] | TGI [45] | TGI [46] | TGI [47] | TGI [48] | TGI [49] | TGI [50] | TGI [51] | TGI [52] | TGI [53] | TGI [54] | TGI [55] | TGI [56] | TGI [57] | TGI [58] | TGI [59]

CC1C(=O)C(C)C(c2ccccc2)N(C)C1c1ccccc1 (configuration not stated)
31.4 µM and > 100 µM: TGI [58]
91.4 µM and > 100 µM: TGI [2]
48.2 µM and > 100 µM: TGI [54]
81.8 µM and > 100 µM: TGI [27]
inactive: GI50 [5] 21.6 µM and 63 µM | GI50 [60] 30 µM and 75.1 µM | GI50 [16] 33.2 µM and 73.4 µM | GI50 [27] 23.6 µM and 61.1 µM | GI50 [29] 23.7 µM and 90.3 µM | GI50 [33] 28 µM and 87.4 µM | GI50 [61] 26.2 µM and 85.4 µM | GI50 [62] 32.8 µM and 85.8 µM | GI50 [49] 15.7 µM and 40.3 µM | GI50 [63] 42.6 µM and 97.9 µM | GI50 [58] 15.8 µM and 86.2 µM
52.5 µM and > 100 µM: TGI [5]
54.3 µM: TGI [45]
93.9 µM and > 100 µM: TGI [33]
45.5 µM and > 100 µM: TGI [24]
99.7 µM and > 100 µM: TGI [60]
30.8 µM and > 100 µM: TGI [49]
> 100 µM: TGI [16] | TGI [61] | TGI [62] | TGI [63] | TGI [55]
67.7 µM and > 100 µM: TGI [29]
57.7 µM and > 100 µM: TGI [51]
